{"source": "patent US20240317780A1", "about": "“RADIOPHARMACEUTICAL SOMATOSTATIN RECEPTOR LIGANDS AND PRECURSORS THEREOF” (Technische Universität München, priority 2021, published 2024)", "key": {"[1]": {"assay": "Octanol-water distribution coefficient (logD pH 7.4) of the labeled tracer", "type": "physicochemical", "settings": "n-octanol/PBS pH 7.4, room temperature", "in_short": "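About 1 MBq tracer partitioned in 1:1 PBS pH 7.4/n-octanol, mixed 3 min at room temperature, centrifuged 15000 g for 5 min. Both layers counted by gamma counter; at least six repeats.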"}, "SST2": {"molecular_target": "T1, SST2 (Homo sapiens, UniProt P30874)", "T1 construct": "expressed in transfected cells; host or cells: CHO (Chinese hamster ovary) cells", "T1 sequence (P30874 whole entry, species assumed)": "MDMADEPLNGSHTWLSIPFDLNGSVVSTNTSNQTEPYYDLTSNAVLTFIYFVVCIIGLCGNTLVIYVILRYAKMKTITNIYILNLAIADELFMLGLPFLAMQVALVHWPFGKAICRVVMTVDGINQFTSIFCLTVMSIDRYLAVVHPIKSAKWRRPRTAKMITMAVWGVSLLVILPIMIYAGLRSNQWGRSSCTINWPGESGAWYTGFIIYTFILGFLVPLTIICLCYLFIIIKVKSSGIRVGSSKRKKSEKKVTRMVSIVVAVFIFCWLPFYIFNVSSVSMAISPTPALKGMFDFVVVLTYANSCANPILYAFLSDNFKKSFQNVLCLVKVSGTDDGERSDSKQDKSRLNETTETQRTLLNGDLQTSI", "assay": "Determination of IC50: competitive binding against [125I]TOC on SST2-transfected CHO cells", "settings": "[125I]TOC reference radioligand, 60 min room temperature"}, "HSA": {"molecular_target": "HSA (Homo sapiens, UniProt P02768)", "sequence (P02768 25-609)": "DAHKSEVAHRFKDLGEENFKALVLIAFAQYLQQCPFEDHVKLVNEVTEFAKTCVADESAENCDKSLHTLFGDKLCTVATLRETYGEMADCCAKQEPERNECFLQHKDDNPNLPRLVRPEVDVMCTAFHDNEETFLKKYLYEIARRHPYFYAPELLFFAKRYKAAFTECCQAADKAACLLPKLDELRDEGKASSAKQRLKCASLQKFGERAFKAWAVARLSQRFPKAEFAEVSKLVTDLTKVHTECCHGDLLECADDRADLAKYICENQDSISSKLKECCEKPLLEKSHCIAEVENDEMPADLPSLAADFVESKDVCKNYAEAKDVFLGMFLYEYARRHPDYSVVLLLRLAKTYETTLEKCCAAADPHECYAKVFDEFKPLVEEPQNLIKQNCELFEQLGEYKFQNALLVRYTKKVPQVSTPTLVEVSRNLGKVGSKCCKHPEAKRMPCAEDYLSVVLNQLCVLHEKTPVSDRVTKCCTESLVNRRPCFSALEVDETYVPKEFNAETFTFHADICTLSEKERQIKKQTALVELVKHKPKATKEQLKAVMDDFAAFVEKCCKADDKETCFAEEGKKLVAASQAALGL", "assay": "HSA binding by RIAC method (gel filtration, apparent molecular weight)", "type": "in vitro ADME", "settings": "HSA binding as apparent molecular weight, 700 μM HSA in PBS mobile phase", "procedure": "A gel filtration column Superdex 75 Increase 10/300 GL (GE Healthcare, Uppsala, Sweden) was beforehand calibrated following the producer's recommendations with a commercially available gel filtration calibration kit (GE Healthcare, Buckinghamshire, UK) comprising conalbumin (MW: 75 kDa), ovalbumin (44 kDa), carbonic anhydrase (29 kDa), ribonuclease A (13.7 kDa) and aprotinin (6.5 kDa) as reference proteins of known molecular weight. AMSEC experiments were conducted using a constant flow rate of 0.8 mL/min at rt. A solution of HSA in PBS at physiological concentration (700 μM) was used as the mobile phase. SST2 ligands were labelled as described with molar activities of 10-20 GBq/μmol. Probes of 1.0 MBq of the radioligand were injected directly from the labelling solution. HSA binding was expressed as an apparent molecular weight MW calculated from the retention time of the radioligand using the determined calibration curve.\nFor evaluation, experimentally determined retention times tR are first converted into elution volumes Ve by multiplying with the flow rate and thereafter converted into partition coefficients Kav following the equation\nwhere V0 is the column void volume (8.027 mL) and Vc is the geometric column volume (24 mL). Using the equation given by the trend line plot of the column calibration\nthe apparent molecular weight MW is calculated as […]"}, "[2]": {"assay": "Biodistribution of 18F-labeled SST2 ligands in AR42J tumor-bearing mice", "type": "in vivo", "settings": "female, CD1 nu/nu, mouse, iv, total radioactivity, 1 h post injection, tail vein", "procedure": "All animal experiments were conducted in accordance with general animal welfare regulations in Germany and the institutional guidelines for the care and use of animals. To establish tumor xenografts, AR42J cells (5×10^6 cells/100 μL) were suspended in Dulbecco modified Eagle medium/Nutrition Mixture F-12 with Glutamax-1 (1:1) and inoculated subcutaneously onto the right shoulder of 8 weeks old, female CD1 nu/nu mice (Charles River, Sulzfeld, Germany). Mice were used for experiments when tumors had grown to a diameter of 5-9 mm (7-15 days after inoculation).\nApproximately 0.5-2.0 MBq (0.05-0.25 nmol) of the ^18F-labeled SST2-ligands were injected into the tail vein of AR42J tumor-bearing female CD1 nu/nu mice and sacrificed after 1 h post injection (n=3-5). Selected organs were removed, weighted and measured in a γ-counter.\nThe Tables 4, 5, and 6 summarize the results of the in vivo mouse experiments. For all biodistribution studies, female CD1 nu/nu mice with AR42J tumor xenografts, were used and sacrificed 1 h post injection."}}, "note": "Read-outs that look alike come from different tables or passages of the source. Where a SMILES comes first, the peptide text is derived from it. Bridges are numbered along the chain shown (N, C = ends). [ ]: non-standard residue; d: D form. The star is where a group is joined. ξ: configuration not given here. Benzoyl(4-SiFtBu2) = CC(C)(C)[Si](F)(c1ccc(C(=O)*)cc1)C(C)(C)C; X1 = CC(C)(C)[Si](F)(c1ccc(C[N+](C)(C)CC(=O)*)cc1)C(C)(C)C; DO3AM = NC(=O)CN1CCN(CC(N)=O)CCN(CC(=O)*)CCN(CC(N)=O)CC1; ξW = NC(Cc1c[nH]c2ccccc12)C(=O)O; dDap = NC[C@@H](N)C(=O)O; ξF = NC(Cc1ccccc1)C(=O)O; ξD = NC(CC(=O)O)C(=O)O; ξDap = NCC(N)C(=O)O; ξC = NC(CS)C(=O)O"}
{"smiles": "C[C@@H](O)[C@H](NC(=O)C1CSSCC(NC(=O)C(Cc2ccccc2)NC(=O)CNC(=O)CNC(=O)CNC(=O)C(CC(=O)O)NC(=O)[C@@H](CC(=O)O)NC(=O)C(CNC(=O)CN2CCN(CC(=O)O)CCN(CC(=O)O)CCN(CC(=O)O)CC2)NC(=O)[C@@H](CN)NC(=O)c2ccc([Si](F)(C(C)(C)C)C(C)(C)C)cc2)C(=O)N[C@@H](Cc2ccc(O)cc2)C(=O)NC(Cc2c[nH]c3ccccc23)C(=O)N[C@@H](CCCCN)C(=O)N[C@@H]([C@@H](C)O)C(=O)N1)C(=O)O", "note": "(stereo partly shown) (natGa complex, metal not drawn) [[Ga]40]", "values": [{"measurement": "LogDpH=7.4", "setting": "[1]", "result": "−2.24 ± 0.03"}, {"measurement": "IC50", "setting": "SST2", "result": "3.61 ± 0.29", "unit": "nM"}, {"measurement": "HSA", "setting": "HSA", "result": 19.25, "unit": "kDa"}]}
{"smiles": "C[C@@H](O)[C@H](NC(=O)C1CSSCC(NC(=O)C(Cc2ccccc2)NC(=O)CNC(=O)CNC(=O)[C@@H](CC(N)=O)NC(=O)C(CC(N)=O)NC(=O)[C@@H](CNC(=O)CC[C@H](C(=O)O)N2CCN(CC(=O)O)CCN(CC(=O)O)CCN(CC(=O)O)CC2)NC(=O)C(CN)NC(=O)c2ccc([Si](F)(C(C)(C)C)C(C)(C)C)cc2)C(=O)N[C@@H](Cc2ccc(O)cc2)C(=O)NC(Cc2c[nH]c3ccccc23)C(=O)N[C@@H](CCCCN)C(=O)N[C@@H]([C@@H](C)O)C(=O)N1)C(=O)O", "note": "(stereo partly shown) (natGa complex, metal not drawn) [[Ga]41]", "values": [{"measurement": "LogDpH=7.4", "setting": "[1]", "result": "−1.58 ± 0.05"}, {"measurement": "IC50", "setting": "SST2", "result": "3.64 ± 0.64", "unit": "nM"}, {"measurement": "HSA", "setting": "HSA", "result": 15.48, "unit": "kDa"}]}
{"smiles": "C[C@@H](O)[C@H](NC(=O)C1CSSCC(NC(=O)C(Cc2ccccc2)NC(=O)[C@@H](CC(N)=O)NC(=O)C(CC(N)=O)NC(=O)[C@@H](CC(=O)O)NC(=O)C(CC(=O)O)NC(=O)[C@@H](CNC(=O)CN2CCN(CC(=O)O)CCN(CC(=O)O)CCN(CC(=O)O)CC2)NC(=O)C(CN)NC(=O)c2ccc([Si](F)(C(C)(C)C)C(C)(C)C)cc2)C(=O)N[C@@H](Cc2ccc(O)cc2)C(=O)NC(Cc2c[nH]c3ccccc23)C(=O)N[C@@H](CCCCN)C(=O)N[C@@H]([C@@H](C)O)C(=O)N1)C(=O)O", "note": "(stereo partly shown) (natGa complex, metal not drawn) [[Ga]42]", "values": [{"measurement": "LogDpH=7.4", "setting": "[1]", "result": "−2.41 ± 0.05"}, {"measurement": "IC50", "setting": "SST2", "result": "5.33 ± 0.78", "unit": "nM"}, {"measurement": "HSA", "setting": "HSA", "result": 17.97, "unit": "kDa"}]}
{"smiles": "C[C@@H](O)[C@H](NC(=O)C1CSSCC(NC(=O)C(Cc2ccccc2)NC(=O)CNC(=O)CNC(=O)[C@@H](CC(=O)O)NC(=O)C(CC(=O)O)NC(=O)[C@@H](CNC(=O)CN2CCN(CC(N)=O)CCN(CC(N)=O)CCN(CC(N)=O)CC2)NC(=O)C(CN)NC(=O)c2ccc([Si](F)(C(C)(C)C)C(C)(C)C)cc2)C(=O)N[C@@H](Cc2ccc(O)cc2)C(=O)NC(Cc2c[nH]c3ccccc23)C(=O)N[C@@H](CCCCN)C(=O)N[C@@H]([C@@H](C)O)C(=O)N1)C(=O)O", "note": "(stereo partly shown) [[Pb]36] ({Benzoyl(4-SiFtBu2)}-[ξDap][dDap](DO3AM)[ξD][dD]GG[ξF][ξC]Y[ξW]KT[ξC]T-OH; disulfide 8-13)", "values": [{"measurement": "LogDpH=7.4", "setting": "[1]", "result": "−1.82 ± 0.05"}, {"measurement": "IC50", "setting": "SST2", "result": "6.57 ± 0.32", "unit": "nM"}, {"measurement": "HSA", "setting": "HSA", "result": 20.22, "unit": "kDa"}, {"measurement": "tissue uptake at 1 h", "setting": "[2]; AR42J tumor, AR42J tumor, read-out: Tumor % ID/g ± SD", "result": "22.3 ± 3.85", "unit": "%ID/g"}, {"measurement": "tissue uptake at 1 h", "setting": "[2]; adrenal glands, read-out: Adrenal glands % ID/g ± SD", "result": "2 ± 0.27", "unit": "%ID/g"}, {"measurement": "tissue uptake at 1 h", "setting": "[2]; blood, read-out: Blood % ID/g ± SD", "result": "1.3 ± 0.21", "unit": "%ID/g"}, {"measurement": "tissue uptake at 1 h", "setting": "[2]; bone, read-out: Bone % ID/g ± SD", "result": "3.38 ± 0.7", "unit": "%ID/g"}, {"measurement": "tissue uptake at 1 h", "setting": "[2]; heart, read-out: Heart % ID/g ± SD", "result": "0.71 ± 0.09", "unit": "%ID/g"}, {"measurement": "tissue uptake at 1 h", "setting": "[2]; intestine, read-out: Intestine % ID/g ± SD", "result": "1.31 ± 0.21", "unit": "%ID/g"}, {"measurement": "tissue uptake at 1 h", "setting": "[2]; kidneys, read-out: Kidneys % ID/g ± SD", "result": "43 ± 6.22", "unit": "%ID/g"}, {"measurement": "tissue uptake at 1 h", "setting": "[2]; liver, read-out: Liver % ID/g ± SD", "result": "8.47 ± 1.23", "unit": "%ID/g"}, {"measurement": "tissue uptake at 1 h", "setting": "[2]; lung, read-out: Lung % ID/g ± SD", "result": "2.42 ± 0.5", "unit": "%ID/g"}, {"measurement": "tissue uptake at 1 h", "setting": "[2]; muscle, read-out: Muscle % ID/g ± SD", "result": "0.47 ± 0.08", "unit": "%ID/g"}, {"measurement": "tissue uptake at 1 h", "setting": "[2]; pancreas, read-out: Pancreas % ID/g ± SD", "result": "9.09 ± 1.79", "unit": "%ID/g"}, {"measurement": "tissue uptake at 1 h", "setting": "[2]; spleen, read-out: Spleen % ID/g ± SD", "result": "0.84 ± 0.17", "unit": "%ID/g"}, {"measurement": "tissue uptake at 1 h", "setting": "[2]; stomach, read-out: Stomach % ID/g ± SD", "result": "4.32 ± 0.81", "unit": "%ID/g"}]}
{"smiles": "C[C@@H](O)[C@H](NC(=O)C1CSSCC(NC(=O)C(Cc2ccccc2)NC(=O)CNC(=O)CNC(=O)[C@@H](CC(=O)O)NC(=O)C(CC(=O)O)NC(=O)[C@@H](CNC(=O)CN2CCN(CC(N)=O)CCN(CC(N)=O)CCN(CC(N)=O)CC2)NC(=O)C[N+](C)(C)Cc2ccc([Si](F)(C(C)(C)C)C(C)(C)C)cc2)C(=O)N[C@@H](Cc2ccc(O)cc2)C(=O)NC(Cc2c[nH]c3ccccc23)C(=O)N[C@@H](CCCCN)C(=O)N[C@@H]([C@@H](C)O)C(=O)N1)C(=O)O", "note": "(stereo partly shown) [[Pb]38] (X1-[dDap](DO3AM)[ξD][dD]GG[ξF][ξC]Y[ξW]KT[ξC]T-OH; disulfide 7-12)", "values": [{"measurement": "LogDpH=7.4", "setting": "[1]", "result": "−1.95 ± 0.03"}, {"measurement": "IC50", "setting": "SST2", "result": "4.67 ± 0.73", "unit": "nM"}, {"measurement": "HSA", "setting": "HSA", "result": 9.20, "unit": "kDa"}]}
